From patent EP4714949A1, “NOVEL COMPOUNDS CAPABLE OF INDUCING OSTEOGENIC DIFFERENTIATION” (AJOU UNIVERSITY INDUSTRY-ACADEMIC COOPERATION FOUNDATION, priority 2023, dated 2024)

Tests used:
p53 = p53 activation in hDPSCs (FIG. 2, compound and concentration selection); type: cell-based, Human
MDM2 = target: T1, MDM2 (Homo sapiens, UniProt Q00987); assay: MDM2 protein degradation by Western blot (SDS-PAGE) in hDPSCs; type: cell-based; conditions: FIG. 2, selection among initially selected compounds
T1 construct: evaluate the intracellular MDM2 protein degradation capacity; endogenous in cells; host or cells: human dental pulp stem cells (hDPSCs)
Procedure: Human dental pulp stem cell lines (hDPSCs) were treated with 14 types of synthesized MDM2-PROTACs (10 µM) for 1 hour and Western blot analysis using SDS-PAGE gel was performed to evaluate the intracellular MDM2 protein degradation capacity.

T1 sequence (Q00987 whole entry): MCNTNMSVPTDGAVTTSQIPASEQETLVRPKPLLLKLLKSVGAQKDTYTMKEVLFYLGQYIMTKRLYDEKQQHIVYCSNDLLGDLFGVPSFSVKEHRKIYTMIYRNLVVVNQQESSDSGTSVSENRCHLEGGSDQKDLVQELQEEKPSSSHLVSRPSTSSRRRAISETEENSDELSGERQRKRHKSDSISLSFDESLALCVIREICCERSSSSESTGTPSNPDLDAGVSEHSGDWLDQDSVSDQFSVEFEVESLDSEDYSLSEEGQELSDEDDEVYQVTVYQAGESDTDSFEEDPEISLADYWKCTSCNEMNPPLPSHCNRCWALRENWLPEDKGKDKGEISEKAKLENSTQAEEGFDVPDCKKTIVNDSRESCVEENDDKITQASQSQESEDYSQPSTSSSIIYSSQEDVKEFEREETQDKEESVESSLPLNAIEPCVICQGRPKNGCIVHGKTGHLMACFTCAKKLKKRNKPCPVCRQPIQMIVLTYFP

SMILES	p53 activation (p53)	MDM2 degradation (MDM2)
COc1ccc(C2=NC(c3ccc(Cl)cc3)C(c3ccc(Cl)cc3)N2C(=O)N2CCN(CC(=O)NCCCCCCCCOc3cccc4c3C(=O)N(C3CCC(=O)NC3=O)C4=O)C(=O)C2)c(OC(C)C)c1 (stereo not drawn) [Compound 6b, 2-(4-(cis-4,5-bis(4-chlorophenyl)-2-(2-isopropoxy-4-methoxyphenyl)-4,5-dihydro-1H-imidazole-1-carbonyl)-2-oxopiperazin-1-yl)-N-(8-((2-(2,6-dioxoopiperidin-3-yl)-1,3-dioxoisoindolin-4-yl)oxy)octyl)acetamide]	activate p53	effectively degrade MDM2
COc1ccc(C2=NC(c3ccc(Cl)cc3)C(c3ccc(Cl)cc3)N2C(=O)N2CCN(CC(=O)NCCCCCCCC#Cc3cccc4c3C(=O)N(C3CCC(=O)NC3=O)C4=O)C(=O)C2)c(OC(C)C)c1 (stereo not drawn) [Compound 16b, 2-(4-(cis-4,5-bis(4-chlorophenyl)-2-(2-isopropoxy-4-methoxyphenyl)-4,5-dihydro-1H-imidazole-1-carbonyl)-2-oxopiperazin-1-yl)-N-(9-(2-(2,6-dioxopiperidin-3-yl)-1,3-dioxoisoindolin-4-yl)non-8-yn-1-yl) acetamide]	activate p53	effectively degrade MDM2
